Laboratory results published in ChEMBL document CHEMBL3425509, “Design, synthesis, and biological evaluation of benzofuran- and 2,3-dihydrobenzofuran-2-carboxylic acid N-(substituted)phenylamide derivatives as anticancer agents and inhibitors of NF-κB” (Bioorg Med Chem Lett, 2015).

Legend:
ACHN = assay: Cytotoxicity against human ACHN cells assessed as cell viability at 10 uM after 72 hrs by sulforhodamine B assay relative to control; assay type: functional; conditions: read-out: Activity
[1] = Cytotoxicity against human HCT15 cells assessed as cell viability at 10 uM after 72 hrs by sulforhodamine B assay relative to control; assay type: functional; conditions: HCT-15, 72 h, read-out: Activity
[2] = Cytotoxicity against human NUGC3 cells assessed as cell viability at 10 uM after 72 hrs by sulforhodamine B assay relative to control; assay type: functional; conditions: NUGC-3, 72 h, read-out: Activity
[3] = biological target: Nuclear factor NF-kappa-B complex (Homo sapiens) (UniProt Q00653+P19838+Q04206); assay: Inhibition of NF-kappaB (unknown origin) transcriptional activity in LPS-induced mouse RAW264.7 cells at 30 uM after 1 hr by secreted alkaline phosphatase assay relative to control; assay type: cell-based
Nuclear factor NF-kappa-B complex (Homo sapiens), sequence (P19838 whole entry, looked up): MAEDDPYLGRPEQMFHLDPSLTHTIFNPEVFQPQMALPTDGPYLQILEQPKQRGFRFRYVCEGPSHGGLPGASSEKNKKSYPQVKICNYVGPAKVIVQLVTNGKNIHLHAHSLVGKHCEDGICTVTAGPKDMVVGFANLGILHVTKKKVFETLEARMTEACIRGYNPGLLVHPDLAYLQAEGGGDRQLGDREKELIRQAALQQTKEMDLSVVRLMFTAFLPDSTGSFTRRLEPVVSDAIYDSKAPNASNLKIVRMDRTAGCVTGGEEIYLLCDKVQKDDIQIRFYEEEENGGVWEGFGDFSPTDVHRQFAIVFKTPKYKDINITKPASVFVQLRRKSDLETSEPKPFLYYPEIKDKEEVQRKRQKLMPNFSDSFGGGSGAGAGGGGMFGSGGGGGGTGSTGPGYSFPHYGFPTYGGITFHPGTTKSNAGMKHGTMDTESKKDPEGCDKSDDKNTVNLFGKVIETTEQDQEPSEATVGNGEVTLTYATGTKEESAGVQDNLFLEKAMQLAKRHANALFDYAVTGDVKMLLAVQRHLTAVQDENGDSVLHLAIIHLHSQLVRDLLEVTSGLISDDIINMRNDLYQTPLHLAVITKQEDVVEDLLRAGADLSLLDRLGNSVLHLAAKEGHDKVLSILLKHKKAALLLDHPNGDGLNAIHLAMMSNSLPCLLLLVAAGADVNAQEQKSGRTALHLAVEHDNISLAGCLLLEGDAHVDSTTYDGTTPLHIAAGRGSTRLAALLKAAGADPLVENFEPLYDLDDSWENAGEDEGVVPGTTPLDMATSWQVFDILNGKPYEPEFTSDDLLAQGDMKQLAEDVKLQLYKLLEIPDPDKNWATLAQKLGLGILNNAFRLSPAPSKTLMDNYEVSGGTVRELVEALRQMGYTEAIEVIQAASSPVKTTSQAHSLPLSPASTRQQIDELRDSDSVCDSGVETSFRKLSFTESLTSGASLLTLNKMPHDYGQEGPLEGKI
Nuclear factor NF-kappa-B complex (Homo sapiens), sequence (Q00653 whole entry, looked up): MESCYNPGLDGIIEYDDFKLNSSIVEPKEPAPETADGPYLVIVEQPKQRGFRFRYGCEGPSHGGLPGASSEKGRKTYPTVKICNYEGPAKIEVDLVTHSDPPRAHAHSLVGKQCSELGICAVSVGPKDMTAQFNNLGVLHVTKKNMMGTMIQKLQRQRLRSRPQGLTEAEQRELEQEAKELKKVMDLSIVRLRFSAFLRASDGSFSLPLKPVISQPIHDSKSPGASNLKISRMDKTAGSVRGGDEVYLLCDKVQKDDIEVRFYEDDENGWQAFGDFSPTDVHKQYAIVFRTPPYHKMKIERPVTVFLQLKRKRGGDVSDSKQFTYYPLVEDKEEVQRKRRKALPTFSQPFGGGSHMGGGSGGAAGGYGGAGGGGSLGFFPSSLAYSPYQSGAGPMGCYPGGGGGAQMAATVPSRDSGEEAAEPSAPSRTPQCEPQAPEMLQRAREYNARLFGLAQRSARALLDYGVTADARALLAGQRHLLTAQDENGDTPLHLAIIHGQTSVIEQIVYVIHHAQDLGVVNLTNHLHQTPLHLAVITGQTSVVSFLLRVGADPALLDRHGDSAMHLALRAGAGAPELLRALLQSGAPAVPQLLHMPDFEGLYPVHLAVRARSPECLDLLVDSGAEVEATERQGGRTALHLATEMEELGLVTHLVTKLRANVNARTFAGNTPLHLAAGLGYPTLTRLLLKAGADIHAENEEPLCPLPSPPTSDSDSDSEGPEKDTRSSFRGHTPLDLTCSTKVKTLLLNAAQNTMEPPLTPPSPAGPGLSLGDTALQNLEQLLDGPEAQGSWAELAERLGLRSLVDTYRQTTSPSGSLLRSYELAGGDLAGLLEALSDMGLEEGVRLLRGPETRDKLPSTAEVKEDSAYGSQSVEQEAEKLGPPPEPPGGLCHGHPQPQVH
Nuclear factor NF-kappa-B complex (Homo sapiens), sequence (Q04206 whole entry, looked up): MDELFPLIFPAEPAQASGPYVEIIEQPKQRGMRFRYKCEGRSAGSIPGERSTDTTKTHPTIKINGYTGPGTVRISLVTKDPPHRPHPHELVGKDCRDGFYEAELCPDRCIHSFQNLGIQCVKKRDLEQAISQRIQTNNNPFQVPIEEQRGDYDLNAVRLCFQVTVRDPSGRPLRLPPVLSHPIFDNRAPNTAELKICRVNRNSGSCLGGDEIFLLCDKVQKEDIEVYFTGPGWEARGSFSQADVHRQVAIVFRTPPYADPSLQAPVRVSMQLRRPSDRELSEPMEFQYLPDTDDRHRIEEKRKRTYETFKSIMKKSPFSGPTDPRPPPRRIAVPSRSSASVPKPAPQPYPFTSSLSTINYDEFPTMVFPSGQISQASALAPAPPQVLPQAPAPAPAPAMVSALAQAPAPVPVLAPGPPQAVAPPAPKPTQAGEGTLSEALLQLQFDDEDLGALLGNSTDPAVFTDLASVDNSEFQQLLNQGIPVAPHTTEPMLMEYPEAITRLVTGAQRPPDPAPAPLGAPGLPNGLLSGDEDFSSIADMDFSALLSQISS

NCI-H23 = assay: Cytotoxicity against human NCI-H23 cells assessed as cell viability at 10 uM after 72 hrs by sulforhodamine B assay relative to control; assay type: functional; conditions: NCI-H23, 72 h, read-out: Activity
[4] = Cytotoxicity against human PC3 cells assessed as cell viability at 10 uM after 72 hrs by sulforhodamine B assay relative to control; assay type: functional; conditions: PC-3, 72 h, read-out: Activity
MDA-MB-231 = assay: Cytotoxicity against human MDA-MB-231 cells assessed as cell viability at 10 uM after 72 hrs by sulforhodamine B assay relative to control; assay type: functional; conditions: MDA-MB-231, 72 h, read-out: Activity

With `COc1ccc(NC(=O)c2cc3ccccc3o2)cc1` the viability at 10 µM (ACHN) was 109%, the viability at 10 µM [1] was 87% and the viability at 10 µM [2] was 102%. The inhibition [3] was 39.5%, the viability at 10 µM (NCI-H23) was 101% and the viability at 10 µM [4] was 111%. It also gave a viability at 10 µM (MDA-MB-231) of 110%.
In the case of `O=C(Nc1cc(C(F)(F)F)cc(C(F)(F)F)c1)C1Cc2ccccc2O1` (stereo unspecified), the viability at 10 µM (ACHN) is reported as 94%, the viability at 10 µM [1] is reported as 92% and the viability at 10 µM [2] is reported as 105%. The inhibition [3] was 25%, the viability at 10 µM (NCI-H23) was 92% and the viability at 10 µM [4] was 96%. It also gave a viability at 10 µM (MDA-MB-231) of 105%.
With `O=C(Nc1ccccc1Cl)c1cc2ccccc2o1` the viability at 10 µM (ACHN) was 76%, the viability at 10 µM [1] was 75% and the viability at 10 µM [2] was 86%. For the same compound, the inhibition [3] was 49.5%, the viability at 10 µM (NCI-H23) was 91% and the viability at 10 µM [4] was 91%. The viability at 10 µM (MDA-MB-231) was 76%.
For `Cc1ccc(NC(=O)C2Cc3ccccc3O2)cc1C` (stereo unspecified), the viability at 10 µM (ACHN) was 137%, the viability at 10 µM [1] was 97% and the viability at 10 µM [2] was 99%. For the same compound, the inhibition [3] was 44.5%, the viability at 10 µM (NCI-H23) was 92% and the viability at 10 µM [4] was 94%. For the same compound, the viability at 10 µM (MDA-MB-231) was 86%.
In the case of `O=C(Nc1cccc(C(F)(F)F)c1)C1Cc2ccccc2O1` (stereo unspecified), the viability at 10 µM (ACHN) is reported as 134%, the viability at 10 µM [1] is reported as 95% and the viability at 10 µM [2] is reported as 93%. The inhibition [3] was 30.5%, the viability at 10 µM (NCI-H23) was 100% and the viability at 10 µM [4] was 69%. The viability at 10 µM (MDA-MB-231) was 102%.
`O=C(Nc1ccccc1O)c1cc2ccccc2o1` gave a viability at 10 µM (ACHN) of 84%, a viability at 10 µM [1] of 58% and a viability at 10 µM [2] of 84%. It also gave an inhibition [3] of 23%, a viability at 10 µM (NCI-H23) of 86% and a viability at 10 µM [4] of 68%. It also gave a viability at 10 µM (MDA-MB-231) of 85%.
With `Cc1cccc(NC(=O)C2Cc3ccccc3O2)c1` (stereo unspecified) the viability at 10 µM (ACHN) was 145%, the viability at 10 µM [1] was 99% and the viability at 10 µM [2] was 108%. It also gave an inhibition [3] of 25%, a viability at 10 µM (NCI-H23) of 98% and a viability at 10 µM [4] of 96%. It also gave a viability at 10 µM (MDA-MB-231) of 95%.
`O=C(Nc1cc(Cl)ccc1Cl)c1cc2ccccc2o1` showed a viability at 10 µM (ACHN) of 96%, a viability at 10 µM [1] of 81% and a viability at 10 µM [2] of 89%. It also gave an inhibition [3] of 36.5%, a viability at 10 µM (NCI-H23) of 96% and a viability at 10 µM [4] of 97%. It also gave a viability at 10 µM (MDA-MB-231) of 101%.
With `COc1ccc(NC(=O)c2cc3ccccc3o2)cc1OC` the viability at 10 µM (ACHN) was 99%, the viability at 10 µM [1] was 92% and the viability at 10 µM [2] was 90%. For the same compound, the inhibition [3] was 40%, the viability at 10 µM (NCI-H23) was 102% and the viability at 10 µM [4] was 98%. It also gave a viability at 10 µM (MDA-MB-231) of 81%.
`COc1ccccc1NC(=O)C1Cc2ccccc2O1` (stereo unspecified) gave a viability at 10 µM (ACHN) of 134%, a viability at 10 µM [1] of 100% and a viability at 10 µM [2] of 111%. It also gave an inhibition [3] of 29%, a viability at 10 µM (NCI-H23) of 111% and a viability at 10 µM [4] of 88%. It also gave a viability at 10 µM (MDA-MB-231) of 89%.
In the case of `O=C(Nc1ccccc1)C1Cc2ccccc2O1` (stereo unspecified), the viability at 10 µM (ACHN) is reported as 95%, the viability at 10 µM [1] is reported as 88% and the viability at 10 µM [2] is reported as 87%. For the same compound, the inhibition [3] was 10%, the viability at 10 µM (NCI-H23) was 93% and the viability at 10 µM [4] was 92%. The viability at 10 µM (MDA-MB-231) was 101%.
`COc1ccccc1NC(=O)c1cc2ccccc2o1` gave a viability at 10 µM (ACHN) of 95%, a viability at 10 µM [1] of 94% and a viability at 10 µM [2] of 99%. For the same compound, the inhibition [3] was 41%, the viability at 10 µM (NCI-H23) was 98% and the viability at 10 µM [4] was 106%. The viability at 10 µM (MDA-MB-231) was 97%.
Work on `COc1ccc(NC(=O)C2Cc3ccccc3O2)cc1OC` (stereo unspecified) yielded a viability at 10 µM (ACHN) of 127%, a viability at 10 µM [1] of 92% and a viability at 10 µM [2] of 87%. For the same compound, the inhibition [3] was 21.5%, the viability at 10 µM (NCI-H23) was 101% and the viability at 10 µM [4] was 38%. It also gave a viability at 10 µM (MDA-MB-231) of 71%.
Work on `O=C(Nc1ccc(Cl)cc1)c1cc2ccccc2o1` yielded a viability at 10 µM (ACHN) of 89%, a viability at 10 µM [1] of 68% and a viability at 10 µM [2] of 91%. The inhibition [3] was 43%, the viability at 10 µM (NCI-H23) was 92% and the viability at 10 µM [4] was 84%. For the same compound, the viability at 10 µM (MDA-MB-231) was 96%.
Compound `Cc1ccc(NC(=O)C2Cc3ccccc3O2)cc1` (stereo unspecified) has a viability at 10 µM (ACHN) of 134%, a viability at 10 µM [1] of 100% and a viability at 10 µM [2] of 112%. The inhibition [3] was 34.5%, the viability at 10 µM (NCI-H23) was 105% and the viability at 10 µM [4] was 80%. For the same compound, the viability at 10 µM (MDA-MB-231) was 96%.
With `O=C(Nc1cc(Cl)cc(Cl)c1)C1Cc2ccccc2O1` (stereo unspecified) the viability at 10 µM (ACHN) was 89%, the viability at 10 µM [1] was 98% and the viability at 10 µM [2] was 114%. The inhibition [3] was 75%, the viability at 10 µM (NCI-H23) was 99% and the viability at 10 µM [4] was 89%. The viability at 10 µM (MDA-MB-231) was 89%.
Compound `Cc1ccccc1NC(=O)C1Cc2ccccc2O1` (stereo unspecified) has a viability at 10 µM (ACHN) of 108%, a viability at 10 µM [1] of 88% and a viability at 10 µM [2] of 91%. It also gave an inhibition [3] of 38%, a viability at 10 µM (NCI-H23) of 91% and a viability at 10 µM [4] of 87%. For the same compound, the viability at 10 µM (MDA-MB-231) was 103%.
In the case of `O=C(Nc1ccccc1[N+](=O)[O-])C1Cc2ccccc2O1` (stereo unspecified), the viability at 10 µM (ACHN) is reported as 108%, the viability at 10 µM [1] is reported as 94% and the viability at 10 µM [2] is reported as 89%. It also gave an inhibition [3] of 28.5%, a viability at 10 µM (NCI-H23) of 97% and a viability at 10 µM [4] of 89%. For the same compound, the viability at 10 µM (MDA-MB-231) was 92%.
